Patent publication US20150297629A1, “MODULATION OF RENIN-ANGIOTENSIN SYSTEM (RAS) RELATED DISEASES BY ANGIOTENSINOGEN” (Isis Pharmaceuticals, Inc,, priority 2012, published 2015)
Oligonucleotides are written 5' to 3', each unit as a sugar letter and its base; * is a phosphorothioate linkage, no mark a phosphodiester; rarer units and linkages stand in square brackets, end groups in braces. Plain capitals give the bases only. e = 2'-O-(2-methoxyethyl) (MOE); [5mC] = 5-methylcytosine; d = 2'-deoxy (DNA)

Assays:
angiotensinogen mRNA [1] = test: Real-time PCR of angiotensinogen mRNA in SHR tissues, Study 3; format: in vivo, Spontaneously hypertensive (SHR) rats; conditions: 3 weeks, oligonucleotides 100 mg/kg/week, Captopril 150 mg/kg/day
Description: A group of SHR was injected with 100 mg/kg/week of ISIS 552668 administered for 3 weeks. A control group of SHR was injected with phosphate buffered saline (PBS) administered weekly for 3 weeks. Another control group of SHR was injected with 100 mg/kg/week of a control oligonucleotide (a nucleotide not targeted to angiotensinogen) administered for 3 weeks.
[…] The mRNA levels were normalized using the housekeeping gene, GAPDH. […] Results are presented as percent inhibition of angiotensinogen, relative to control.

female SHR rats [2] = test: Heart size after harvest in female SHR rats, Study 2; format: in vivo, Spontaneously hypertensive (SHR) rats; conditions: after 3 weeks, versus wild-type controls
Description: The size of the heart was measured immediately after harvest.

SHR = test: Mean arterial pressure by tail-cuff method in SHR, Study 3; format: in vivo, Spontaneously hypertensive (SHR) rats; conditions: ISIS 552668 and control oligonucleotide 100 mg/kg/week, Captopril 150 mg/kg/day
Description: A control group of SHR was injected with phosphate buffered saline (PBS) administered weekly for 3 weeks. Another control group of SHR was injected with 100 mg/kg/week of a control oligonucleotide (a nucleotide not targeted to angiotensinogen) administered for 3 weeks. […] Mean arterial pressure (MAP) in the rats was measured by the tail-cuff volume-pressure method (Kent Scientific, Torrington, Conn.).

Dahl/SS rats = test: Blood pressure by tail-cuff method in Dahl/SS rats; format: in vivo, Dahl/Salt Sensititive (Dahl/SS) rats; conditions: female Dahl/SS rats, 8% NaCl diet; 3 weeks; ISIS oligonucleotides 40 mg/kg/week, Captopril 150 mg/kg daily
Description: The rats were fed a diet with 8% NaCl. A group of female Dahl/SS rats was injected with 40 mg/kg/week of ISIS 552668 administered for 3 weeks. A group of female Dahl/SS rats was injected with 40 mg/kg/week of control oligonucleotides ISIS 141923 administered for 3 weeks. […] A control group of female Dahl/SS rats was injected with phosphate buffered saline (PBS) administered weekly for 3 weeks. Another control group constituted a group of Dahl/Salt Resistant (Dahl/SR) rats injected with phosphate buffered saline (PBS) administered weekly for 3 weeks.
Systolic blood pressure (SBP), mean arterial pressure (MAP), and diastolic blood pressure (DBP) in the rats was measured by the tail-cuff volume-pressure method (Kent Scientific). The results are presented in Table 12, expressed as the percent decrease in blood pressure compared to the control SHR group.

renin mRNA = test: Real-time PCR of kidney renin mRNA in SHR, Study 3; format: in vivo, Spontaneously hypertensive (SHR) rats; conditions: 3 weeks, oligonucleotides 100 mg/kg/week, Captopril 150 mg/kg/day, PBS = 100
Description: A control group of SHR was injected with phosphate buffered saline (PBS) administered weekly for 3 weeks. Another control group of SHR was injected with 100 mg/kg/week of a control oligonucleotide (a nucleotide not targeted to angiotensinogen) administered for 3 weeks. […] RNA was extracted from kidney tissue for real-time PCR analysis of renin, using primer probe set rRenin2 (forward sequence [NT], designated herein as SEQ ID NO: 21; reverse sequence [NT], designated herein as SEQ ID NO: 22; probe sequence [NT], designated herein as SEQ ID NO: 23). The mRNA levels were normalized using the housekeeping gene, GAPDH. […] Increase in renin in the body is deleterious to the overall health of the animal (Nguyen and Muller, The Biology of the (Pro)Renin Receptor, J Am Soc Nephrol, 2010 January, 21(1):18-23). […] Results are presented as percent expression of renin, relative to control.

angiotensinogen mRNA [3] = test: Real-time PCR of angiotensinogen mRNA in liver and kidney of Sprague-Dawley rats; format: in vivo; conditions: relative to PBS control
Description: A control group of rats was injected with phosphate buffered saline (PBS) administered weekly for 4 weeks. The rats were sacrificed at the end of the study at week 4. Whole liver and kidney were harvested for RNA analysis and plasma was collected for protein analysis. RNA was extracted from liver tissue for real-time PCR analysis of angiotensinogen, using primer probe set RTS3550 (forward sequence [NT], designated herein as SEQ ID NO: 18; reverse sequence [NT], designated herein as SEQ ID NO: 19; probe sequence [NT], designated herein as SEQ ID NO: 20). The mRNA levels were normalized using the housekeeping gene, GAPDH. […] Results are presented as percent inhibition of angiotensinogen, relative to control.

Sprague-Dawley rats = test: Blood pressure by tail-cuff volume-pressure method in Sprague-Dawley rats; format: in vivo; conditions: after 4 wks of treatments
Description: Groups of Sprague-Dawley rats were injected with 10 mg/kg/week, 20 mg/kg/week, 40 mg/kg/week, or 80 mg/kg/week of ISIS 552668 administered for 4 weeks. A control group of rats was injected with phosphate buffered saline (PBS) administered weekly for 4 weeks. The rats were sacrificed at the end of the study at week 4. Whole liver and kidney were harvested for RNA analysis and plasma was collected for protein analysis.
Systolic blood pressure (SBP), mean arterial pressure (MAP), and diastolic blood pressure (DBP) in the rats was measured by the tail-cuff volume-pressure method (Kent Scientific, Torrington, Conn.).

female SHR rats [4] = test: Blood pressure by tail-cuff method in female SHR rats with subsequent Captopril, Study 2; format: in vivo, Spontaneously hypertensive (SHR) rats; conditions: then Captopril 50 mg/kg/day for 4 days
Description: A control group of female SHR rats was injected with phosphate buffered saline (PBS) administered weekly for 2 weeks. Another control group constituted a group of wild-type rats injected with phosphate buffered saline (PBS) administered weekly for 2 weeks. […] Systolic blood pressure (SBP), mean arterial pressure (MAP), and diastolic blood pressure (DBP) in the rats was measured by the tail-cuff volume-pressure method (Kent Scientific, Torrington, Conn.).

ISIS 552668: 5-10-5 MOE gapmer CACTGATTTTTGCCCAGGAT (SEQ ID NO: 17), phosphorothioate linkages, 5-methylcytosines, targeted to rat angiotensinogen (antisense e[5mC]*eA*e[5mC]*eT*eG*dA*dT*dT*dT*dT*dT*dG*d[5mC]*d[5mC]*d[5mC]*eA*eG*eG*eA*eT)
Percent inhibition of angiotensinogen mRNA compared to the PBS control, Heart (angiotensinogen mRNA [1]): 89%
Percent inhibition of angiotensinogen mRNA compared to the PBS control, Kidney (angiotensinogen mRNA [1]): 76%
Percent inhibition of angiotensinogen mRNA compared to the PBS control, Liver (angiotensinogen mRNA [1]): 87%
Effect on heart size of the SHR rats (female SHR rats [2]): reversed the increase in heart size of the SHR rats to that observed in the wild-type controls
MAP, Week 1 (SHR): 117 mm Hg
MAP, Week 2 (SHR): 104 mm Hg
MAP, Week 3 (SHR): 109 mm Hg
DBP (Dahl/SS rats): 94 mm Hg
MAP (Dahl/SS rats): 111 mm Hg
SBP (Dahl/SS rats): 146 mm Hg
Percent increase of kidney renin mRNA (renin mRNA): 379%
Percent inhibition of angiotensinogen mRNA, Kidney (angiotensinogen mRNA [3]; 10 mg/kg/wk for 4 weeks): 41%
Percent inhibition of angiotensinogen mRNA, Liver (angiotensinogen mRNA [3]; 10 mg/kg/wk for 4 weeks): 19%
Percent inhibition of angiotensinogen mRNA, Kidney (angiotensinogen mRNA [3]; 20 mg/kg/wk for 4 weeks): 68%
Percent inhibition of angiotensinogen mRNA, Liver (angiotensinogen mRNA [3]; 20 mg/kg/wk for 4 weeks): 59%
Percent inhibition of angiotensinogen mRNA, Kidney (angiotensinogen mRNA [3]; 40 mg/kg/wk for 4 weeks): 75%
Percent inhibition of angiotensinogen mRNA, Liver (angiotensinogen mRNA [3]; 40 mg/kg/wk for 4 weeks): 86%
Percent inhibition of angiotensinogen mRNA, Kidney (angiotensinogen mRNA [3]; 80 mg/kg/wk for 4 weeks): 77%
Percent inhibition of angiotensinogen mRNA, Liver (angiotensinogen mRNA [3]; 80 mg/kg/wk for 4 weeks): 96%
DBP (Sprague-Dawley rats; 10 mg/kg/wk): 107 mm Hg
MAP (Sprague-Dawley rats; 10 mg/kg/wk): 117 mm Hg
SBP (Sprague-Dawley rats; 10 mg/kg/wk): 138 mm Hg
DBP (Sprague-Dawley rats; 40 mg/kg/wk): 79 mm Hg
MAP (Sprague-Dawley rats; 40 mg/kg/wk): 92 mm Hg
SBP (Sprague-Dawley rats; 40 mg/kg/wk): 118 mm Hg
DBP (Sprague-Dawley rats; 80 mg/kg/wk): 68 mm Hg
MAP (Sprague-Dawley rats; 80 mg/kg/wk): 82 mm Hg
SBP (Sprague-Dawley rats; 80 mg/kg/wk): 109 mm Hg
DBP (female SHR rats [4]; ASO 50 mg/kg/wk for 2 weeks): 82 mm Hg
MAP (female SHR rats [4]; ASO 50 mg/kg/wk for 2 weeks): 97 mm Hg
SBP (female SHR rats [4]; ASO 50 mg/kg/wk for 2 weeks): 127 mm Hg
DBP (female SHR rats [4]; ASO 75 mg/kg/wk for 2 weeks): 74 mm Hg
MAP (female SHR rats [4]; ASO 75 mg/kg/wk for 2 weeks): 87 mm Hg
SBP (female SHR rats [4]; ASO 75 mg/kg/wk for 2 weeks): 113 mm Hg
DBP (female SHR rats [4]; ASO 100 mg/kg/wk for 2 weeks): 81 mm Hg
MAP (female SHR rats [4]; ASO 100 mg/kg/wk for 2 weeks): 94 mm Hg
SBP (female SHR rats [4]; ASO 100 mg/kg/wk for 2 weeks): 120 mm Hg
